{"source": "patent US9669016B2", "about": "“Antiparasitic effect of Bis[3,5-Bis(Benzylidene)-4-Oxo-1-Piperidinyl]amide Derivatives” (priority 2014, dated 2017)", "key": {"[1]": {"assay": "Weight and toxicity monitoring in treated infected mice", "type": "in vivo, BALB/c mice", "settings": "10^5 infection experiment, daily IP treatment", "method": "(§1) The in vivo experiments were comprised of four groups of five mice each: (1) infected, but not treated [control for the infection—100 μL of DMSO per day, drug diluent]; (2) treated with NC884, NC901 or NC2459, but not infected with the parasites [control for drug toxicity]; (3) infected with the parasites and treated with amphotericin B (8 mg/kg/day) [reference drug; positive control]; and (4) infected with the parasites and treated with NC884, NC901 or NC2459 [experimental group]. Luciferase expressing metacyclic promastigotes L. major (Freidlin V1) were obtained as described previously. Suspensions of 1×10^5 or 1×10^6 parasites per 50 μl of sterile DMEM (endotoxin-free) were injected with a 30G needle into the left hind footpad of BALB/c mice. Two weeks post-infection the compounds were administered once a day by intraperitoneal route, daily for 14 to 17 days. Twice a week, weights were recorded to monitor toxicity and the thickness of the infected footpad and the non-infected footpad was measured with digital calipers to monitor the progression of the disease. The parasitic load also was evaluated through in vivo imaging using luminescence (Kodak Image Station). The mice were injected intra-peritoneally with 150 mg/kg D-luciferin (Sigma, USA) 10 min before imaging, anesthetized with 1-2% isofluorane in oxygen during imaging and the net intensity emitted from the footpad was quantified using the KODAK Image Station software. Parasite burden was expressed as net intensity emitted from L. major infected footpad lesions normalized against the background fluorescence of uninfected mice. The presence/absence of parasites was confirmed by PCR using L. major methionine aminopeptidase (MetAP1) 1 specific primers: 5′-[…]-3′ (SEQ ID NO:1) and 5′-[…]-3′ (SEQ ID NO:2) on cDNA reverse transcribed from total RNA extracted from footpad lysate obtained by macerating footpad tissue fragments in Trizol (Invitrogen Life Technologies, United States) with the gentleMACS™ Dissociator (Miltenyi Biotec GmbH, Germany) following the manufacturer's protocol."}, "[2]": {"system": "L. major metacyclic promastigotes", "assay": "Murine model for cutaneous leishmaniasis (footpad infection)", "type": "in vivo, BALB/c mice", "settings": "10^5 L. major metacyclic promastigotes, intraperitoneal daily treatment", "method": "as §1"}}}
{"smiles": "C[C@@H]1[C@H](O)[C@@H](C)/C=C/C=C/C=C/C=C/C=C/C=C/C=C/[C@H](O[C@@H]2O[C@H](C)[C@@H](O)[C@H](N)[C@@H]2O)C[C@@H]2O[C@](O)(C[C@@H](O)C[C@@H](O)[C@H](O)CC[C@@H](O)C[C@@H](O)CC(=O)O[C@H]1C)C[C@H](O)[C@H]2C(=O)O", "note": "[amphotericin B, reference compound]", "values": [{"measurement": "weight loss", "setting": "[1]", "result": "much more dramatic loss in weight"}, {"measurement": "footpad swelling", "setting": "[2]", "result": "reduced footpad swelling"}]}
